Laboratory results from the NIST ThermoML archive (doi:10.1021/je100100n).

Legend:
[1] = 101.3 kPa, Liquid
[2] = xn = mol fraction of the nth substance listed; details: 101 kPa, Liquid

CC(C)CO [2-methyl-1-propanol]
[1]
Details | mass density [kg/m3]
288.15 K | 805.6
298.15 K | 797.916
313.15 K | 786.069
328.15 K | 773.692

CCCCO [butan-1-ol]
[1]
Details | mass density [kg/m3]
288.15 K | 813.77
298.15 K | 806.137
313.15 K | 794.488
328.15 K | 782.477

CCOC(=O)CC(=O)OCC [diethyl 1,3-propanedioate]
[1]
Details | mass density [kg/m3]
288.15 K | 1060.33
298.15 K | 1049.6
313.15 K | 1033.5
328.15 K | 1017.34

CCOC(=O)CC(=O)OCC [diethyl 1,3-propanedioate] + CCO
mass density [kg/m3], [2]
Details | 288.15 K | 298.15 K | 313.15 K | 328.15 K
x1 = 0.05 | 826.264 | 817.293 | 803.619 | 789.558
x1 = 0.0999 | 853.923 | 844.646 | 830.505 | 815.983
x1 = 0.1001 | 854.013 | 844.731 | 830.589 | 816.063
x1 = 0.15 | 878.005 | 868.468 | 853.941 | 839.005
x1 = 0.2001 | 899.1 | 889.366 | 874.536 | 859.351
x1 = 0.3 | 934.365 | 924.309 | 909.007 | 893.394
x1 = 0.4 | 962.806 | 952.511 | 936.881 | 920.983
x1 = 0.4498 | 974.929 | 964.533 | 948.801 | 932.802
x1 = 0.4999 | 986.037 | 975.577 | 959.71 | 943.637
x1 = 0.5501 | 996.293 | 985.767 | 969.837 | 953.695
x1 = 0.6001 | 1005.6 | 995.034 | 979.034 | 962.847
x1 = 0.6453 | 1013.44 | 1002.82 | 986.788 | 970.577
x1 = 0.6997 | 1022.16 | 1011.52 | 995.442 | 979.211
x1 = 0.7497 | 1029.61 | 1018.93 | 1002.83 | 986.588
x1 = 0.8496 | 1043.02 | 1032.31 | 1016.2 | 999.969
x1 = 0.8995 | 1049.08 | 1038.36 | 1022.25 | 1006.06
x1 = 1 | 1060.33 | 1049.6 | 1033.5 | 1017.34

CCOC(=O)CC(=O)OCC [diethyl 1,3-propanedioate] + CO
mass density [kg/m3], [2]
Details | 288.15 K | 298.15 K | 313.15 K | 328.15 K
x1 = 0.05 | 841.286 | 831.536 | 816.754 | 801.691
x1 = 0.1 | 876.23 | 866.252 | 851.13 | 835.697
x1 = 0.1501 | 904.185 | 894.037 | 878.631 | 862.956
x1 = 0.2001 | 926.962 | 916.671 | 901.091 | 885.223
x1 = 0.2501 | 945.901 | 935.504 | 919.763 | 903.75
x1 = 0.3001 | 961.96 | 951.502 | 935.636 | 919.517
x1 = 0.35 | 975.573 | 965.04 | 949.084 | 932.879
x1 = 0.4001 | 987.417 | 976.822 | 960.784 | 944.523
x1 = 0.4503 | 997.752 | 987.12 | 971.04 | 954.725
x1 = 0.5004 | 1006.9 | 996.235 | 980.1 | 963.763
x1 = 0.5497 | 1014.88 | 1004.18 | 988.016 | 971.649
x1 = 0.6 | 1022.04 | 1011.32 | 995.132 | 978.761
x1 = 0.6495 | 1028.48 | 1017.74 | 1001.52 | 985.159
x1 = 0.6997 | 1034.33 | 1023.59 | 1007.37 | 991.006
x1 = 0.7978 | 1044.36 | 1033.61 | 1017.38 | 1001.07
x1 = 0.9009 | 1053.15 | 1042.39 | 1026.22 | 1009.98
x1 = 1 | 1060.33 | 1049.6 | 1033.5 | 1017.34

CCO [ethanol]
[1]
Details | mass density [kg/m3]
288.15 K | 794.044
298.15 K | 785.489
313.15 K | 772.42
328.15 K | 758.958

CCO [ethanol] + CCOC(=O)CC(=O)OCC
[2], x2 = 0
Details | mass density [kg/m3]
288.15 K | 794.044
298.15 K | 785.489
313.15 K | 772.42
328.15 K | 758.958

CO [methanol]
[1]
Details | mass density [kg/m3]
288.15 K | 796.406
298.15 K | 786.987
313.15 K | 772.74
328.15 K | 758.201

CO [methanol] + CCOC(=O)CC(=O)OCC
[2], x2 = 0
Details | mass density [kg/m3]
288.15 K | 796.406
298.15 K | 786.987
313.15 K | 772.74
328.15 K | 758.201

CCCCCO [pentan-1-ol]
[1]
Details | mass density [kg/m3]
288.15 K | 818.801
298.15 K | 811.465
313.15 K | 800.264
328.15 K | 788.737

CCCCCO [pentan-1-ol] + CCOC(=O)CC(=O)OCC
[2], x2 = 0
Details | mass density [kg/m3]
288.15 K | 818.801
298.15 K | 811.465
313.15 K | 800.264
328.15 K | 788.737

CCCO [propan-1-ol]
[1]
Details | mass density [kg/m3]
288.15 K | 809.009
298.15 K | 800.973
313.15 K | 788.687
328.15 K | 775.974

CCCO [propan-1-ol] + CCOC(=O)CC(=O)OCC
[2], x2 = 0
Details | mass density [kg/m3]
288.15 K | 809.009
298.15 K | 800.973
313.15 K | 788.687
328.15 K | 775.974

CC(C)O [propan-2-ol]
[1]
Details | mass density [kg/m3]
288.15 K | 789.342
298.15 K | 780.99
313.15 K | 767.922
328.15 K | 754.001

CC(C)O [propan-2-ol] + CCOC(=O)CC(=O)OCC
[2], x2 = 0
Details | mass density [kg/m3]
288.15 K | 789.342
298.15 K | 780.99
313.15 K | 767.922
328.15 K | 754.001
